Experimental data published in US11583532B2, “Triazolopyrimidine derivatives for use as ghrelin o-acyl transferase (GOAT) inhibitors” (Boehringer Ingelheim International GmbH, priority 2018, dated 2023).
Where “and” joins values, the source holds several entries; their conditions need not be identical. Equal values may be shown once.

What follows are molecules tested against human GOAT (ghrelin O-acyl transferase) (Homo sapiens (Human), UniProt Q96T53) (assay: Determination of hGOAT activity in HEK293 cells after incubation with test compound (acyl-ghrelin ELISA)). Conditions: HEK293 cells stably transfected with preproghrelin and human GOAT cDNA; octanoate-BSA 100 μM; 5 hours incubation; acyl-ghrelin in medium by ELISA; 8 compound concentrations.
Sequence of human GOAT (ghrelin O-acyl transferase) (Q96T53 whole entry): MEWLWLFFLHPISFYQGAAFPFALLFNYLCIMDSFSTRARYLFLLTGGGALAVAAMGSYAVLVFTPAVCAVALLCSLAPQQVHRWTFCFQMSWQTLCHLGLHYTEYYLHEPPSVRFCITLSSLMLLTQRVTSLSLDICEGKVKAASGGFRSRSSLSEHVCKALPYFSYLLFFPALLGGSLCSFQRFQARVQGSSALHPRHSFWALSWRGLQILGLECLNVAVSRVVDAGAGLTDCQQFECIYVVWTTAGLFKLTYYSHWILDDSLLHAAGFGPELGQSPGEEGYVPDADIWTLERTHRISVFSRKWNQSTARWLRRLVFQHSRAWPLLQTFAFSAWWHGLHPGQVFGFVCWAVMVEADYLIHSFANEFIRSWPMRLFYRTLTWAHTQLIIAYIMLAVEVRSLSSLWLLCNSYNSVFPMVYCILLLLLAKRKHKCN
Type: cell-based
Procedure: Determination of hGOAT Activity in HEK293 Cells after incubation with test compound
HEK293 cells stably transfected with two expression vectors, one coding for preproghrelin cDNA and a second for the expression of human GOATcDNA are used as a cellular model. After feeding the cells with octanoic acid for 5 hours, acyl-ghrelin is measured in cell culture medium by an ELISA procedure.
Cellline: Hek293 hGOAT/PPGhrl Clone #1B8Sodium octanoate, Sigma, Cat.-No. C5038
BSA: Sigma, Cat.-No. A8806
BD Poly-D-Lysin 384-well Plates, black-clear polystyrene BD Bioscience Cat.-No. […] ELISA human acylated Ghrelin Kit purchased from Bertin Pharman (detailed composition of buffers e.g. wash-puffer, ELISA buffer not known)
All further reagents used were of highest analytical grade available.
Cells are plated with a density of 5000 cells/well in 384-well poly-D-lysin plates and incubated for 1 day at 37° C., 5% CO2 in DMEM medium, 10% FCS, 1×NEAA, Puromycin (0.5 μg/ml) and G418 (1 mg/ml). Then the medium is changed to a identical medium without FCS and containing Octanoate-BSA (final concentration 100 μM each) and compound in DMSO (final DMSO concentration 0.3%). After incubation for 5 hours acylghrelin in the medium is measured by ELISA.
The medium sample is diluted 1:25 in Elisa buffer, a 25 μl aliquot is transferred to a 384-well ELISA plate previously washed 4 times with 100 μL wash buffer, and 25 μl tracer-solution is added. After incubation overnight (˜20 h) at 4° C. temperature the plate is washed 4 times with 100 μl wash-buffer per well. Finally 50 μl Ellman's reagent is added to each well and the plate is incubated in the dark for 20 minutes. The absorbance is measured at 405 nm in an Envision multilabel reader and the amount of acylated ghrelin is calculated according to a acylated ghrelin standard curve provided in the same plate.
The analysis of the data is performed by calculation of the percentage of acyl-ghrelin produced in the presence of test compound compared to the amount of acyl-ghrelin produced in the vehicle control samples. An inhibitor of the GOAT enzyme will give values between 100% CTL (no inhibition) and 0% CTL (complete inhibition).
IC50 values are calculated with Assay Explorer or other suited software based on curve fitting of results of 8 different compound concentrations.
For `Cc1nc2ncnn2c(N)c1Cc1cccc(-c2cn(C)nc2C(F)(F)F)n1` [Example 13.1, 5-Methyl-6-({6-[1-methyl-3-(trifluoromethyl)-1H-pyrazol-4-yl]pyridin-2-yl}methyl)-[1,2,4]triazolo[1,5-a]pyrimidin-7-amine], the IC50 was 1.7 nM.
With `Cc1nc2ncnn2c(N)c1Cc1cccc(-c2c[nH]nc2C(F)(F)F)n1` [Example 13.2] the IC50 was 2.1 nM.
`Cc1nc2ncnn2c(N)c1Cc1ccc(Br)c(C2(C#N)CC(F)(F)C2)n1` [Example 14.1, 1-[6-({7-Amino-5-methyl-[1,2,4]triazolo[1,5-a]pyrimidin-6-yl}methyl)-3-bromopyridin-2-yl]-3,3-difluorocyclobutane-1-carbonitrile] showed an IC50 of 0.31 nM.
`COC(=O)c1cc(Cc2c(C)nc3ncnn3c2N)ccc1OC(F)(F)F` [Example 15.1, Methyl 5-({7-amino-5-methyl-[1,2,4]triazolo[1,5-a]pyrimidin-6-yl}methyl)-2-(trifluoromethoxy)benzoate] gave an IC50 of 0.83 nM.
With `Cc1nc2ncnn2c(N)c1Cc1ccc(OC(F)(F)F)c(C(=O)N(C)C)c1` [Example 15.2, 5-({7-Amino-5-methyl-[1,2,4]triazolo[1,5-a]pyrimidin-6-yl}methyl)-N,N-dimethyl-2-(trifluoromethoxy)benzamide] the IC50 was 3.5 nM and 5.4 nM.
For `Cc1nc2ncnn2c(N)c1Cc1ccc(OC(F)(F)F)c(C(=O)NC(C)C)c1` [Example 15.3], the IC50 was 8.6 nM.
Molecule `Cc1nc2ncnn2c(N)c1Cc1ccc(OC(F)(F)F)c(C(N)=O)c1` [Example 15.4] has an IC50 of 9.3 nM.
`Cc1nc2ncnn2c(N)c1Cc1ccc(-c2c[nH]nc2C(F)(F)F)c(N)n1` [Example 16.1, 6-({7-Amino-5-methyl-[1,2,4]triazolo[1,5-a]pyrimidin-6-yl}methyl)-3-[3-(trifluoromethyl)-1H-pyrazol-4-yl]pyridin-2-amine] was tested, and the IC50 was 3.1 nM.
In the case of `Nc1c(Cc2ccc(C(F)(F)F)cc2)c(C(F)F)nc2ncnn12` [Example 17.1, 5-(Difluoromethyl)-6-{[4-(trifluoromethyl)phenyl]methyl}-[1,2,4]triazolo[1,5-a]pyrimidin-7-amine], the IC50 is reported as 0.95 nM.
`Cc1nc2ncnn2c(N)c1Cc1ccc(C(F)(F)F)cc1Br` [Example 17.2] was tested, and the IC50 was 5 nM.
With `Cc1nc2ncnn2c(N)c1Cc1ccc(S(=O)(=O)C(F)(F)F)cc1` [Example 18.1, 5-Methyl-6-[(4-trifluoromethanesulfonylphenyl)methyl]-[1,2,4]triazolo[1,5-a]pyrimidin-7-amine] the IC50 was 4.2 nM.
Work on `Cc1nc2ncnn2c(N)c1Cc1ccc([S+]([O-])C(F)(F)F)cc1` (stereo not drawn) [Example 19.1, 5-M ethyl-6-[(4-trifluoromethanesulfinylphenyl)methyl]-[1,2,4]triazolo[1,5-a]pyrimidin-7-amine] yielded an IC50 of 4.9 nM.
`Cc1nc2ncnn2c(N)c1Cc1ccc(OC(F)(F)F)c(C#N)c1` [Example 20.1, 5-({7-Amino-5-methyl-[1,2,4]triazolo[1,5-a]pyrimidin-6-yl}methyl)-2-(trifluoromethoxy)benzonitrile] was tested, and the IC50 was 9.2 nM.
For `Cc1nc2ncnn2c(N)c1Cc1ccc(C(F)(F)F)cc1F` [Example 21.1, 6-{[2-Fluoro-4-(trifluoromethyl)phenyl]methyl}-5-methyl-[1,2,4]triazolo[1,5-a]pyrimidin-7-amine], the IC50 was 8.1 nM.
In the case of `Cc1nc2ncnn2c(N)c1Cc1ccc(Br)c(C(=O)OCC(F)(F)F)c1` [Example 22.1, 2,2,2-Trifluoroethyl 5-({7-amino-5-methyl-[1,2,4]triazolo[1,5-a]pyrimidin-6-yl}methyl)-2-bromobenzoate], the IC50 is reported as 7.2 nM.
For `Cc1nc2ncnn2c(N)c1Cc1ccc(Br)c(N2CCC(F)(F)C2)n1` [Example 23.1, 6-{[5-Bromo-6-(3,3-difluoropyrrolidin-1-yl)pyridin-2-yl]methyl}-5-methyl-[1,2,4]triazolo[1,5-a]pyrimidin-7-amine], the IC50 was 0.25 nM.
Molecule `Cc1nc2ncnn2c(N)c1Cc1ccc(Br)c(N2CCC(F)(F)CC2)n1` [Example 23.2] has an IC50 of 0.29 nM.
With `Cc1nc2ncnn2c(N)c1Cc1ccc(Br)c(N2CC(F)(F)C2)n1` [Example 23.3] the IC50 was 0.36 nM.
